Test results reported in patent US20250152616A1, “COMPOSITIONS FOR AND METHODS OF TREATING, PREVENTING, AND/OR MITIGATING PAIN” (Duke University, priority 2022, published 2025).

What was measured:
[1] = tested on: mouse model of stabilized unilateral tibial fracture; test: Static weight bearing (incapacitance meter) after tibial fracture; assay type: in vivo; conditions: for ipsilateral weight bearing vs pre-fracture baseline: adenosine-loaded hydrogel at fracture site
Description: The aim of the experiments described herein was to examine the effectiveness of local delivery of adenosine in tibial bone injury to concurrently attenuate fracture/post-surgical pain while promoting healing. All animal work was performed in compliance with the National Institutes of Health (NIH) and institutional guidelines, and the fracture surgery and biomaterial implantation protocols approved by the Institutional Animal Care and Use Committee at Duke University (Protocol Registry Number A151-20-07) were followed. C57BL/6J mice were used to study fracture nociception and the effect of local delivery of adenosine to mitigate pain and promote bone regeneration. Lepr-cre; tdTomato reporter mice were used for tracing of LepR(+) lineage cells after fracture. To determine the effect of adenosine on pain and healing, fracture surgeries were performed and treated immediately with PEGDA-6ACA-PBA macroporous hydrogels loaded with adenosine as treatment group or without adenosine as control group (Zeng Y, et al. (2020) Adv Mater. 32:e1906022). Behavioral tests for pain and limb function were assessed by weight bearing and open field locomotion. A priori power analysis was used to estimate the sample size requiring a statistical power (1−β) of 80% at the significance level of α=5%. On the basis of the power calculation, the indicated number was 8 animals per group for fracture pain and 4 animals per group for fracture healing. Ten animals per group were used to study the effect of adenosine on fracture pain, and 5 animals per group were used to examine the effect of adenosine on fracture healing. The exclusion criteria for experiments were animals that died due to the surgical procedures or shift of the intramedullary pin identified after experimental endpoint post-mortem. No randomization was used and researchers were not blinded. Measurement of adenosine in the circulation was performed by using an adenosine assay. The in vitro functional activity of DRG neurons was assessed by calcium and membrane potential imaging and the expression of proteins were assessed by histology or immunofluorescence imaging, and gene expression by RT-qPCR. Fracture healing was analyzed by microCT and histology. The study design and timeline of animal procedures (pin placement, surgery, therapeutic intervention with and without adenosine, and behavioral tests) are illustrated in FIG. 10A (weight bearing) and FIG. 10A (open field locomotion).
In all experiments, 12-week-old to 16-week-old C57BL/6J male mice (Jackson Laboratory, Bar Harbor, ME) and Lepr-cre; tdTomato reporter mice were used. The average mouse weight was 25 grams and mice were housed in groups of four to five, and kept on a 12-hr light-dark cycle with lights off at 1800 hr. All animals had ad libitum access to chow (PMI LabDiet 5001) and water. Fracture surgeries were performed as previously described (Zeng Y, et al. (2020) Adv Mater. 32:e1906022). Animals were anesthetized by isoflurane and injected with 1 mg/kg buprenorphine SR-LAB (ZooPharm, Laramie, WY). Each mouse was then placed in a supine position with the right tibia disinfected. After skin incision and reflection, proximal to the right knee, a 0.7-mm pin was inserted from the tibial plateau through the medullary cavity to stabilize the tibia, and a cut was made at the tibial midshaft to induce a transverse fracture. Bupivacaine (0.5%; Hospira, Lake Forest, IL) at ˜1 mg/kg body weight was applied at the surgical site following wound closure using 2 reflex clips (5 mm). For animals treated with control and adenosine-loaded macroporous hydrogels, macroporous hydrogels measuring approximately 5 mm (length)×3 mm (width)×1 mm (thick) containing either 1.05±0.1 mg adenosine (ADO) or no adenosine (CTL) were implanted adjacent to the fractures immediately. […] The animals were treated with the macroporous hydrogels with or without adenosine immediately following the fracture. […]

[2] = tested on: bone marrow mesenchymal stromal cells (BM-MSCs); test: RT-qPCR of osteogenic genes in bone marrow MSCs; assay type: cell-based, mouse; conditions: adenosine 30 μg/mL, 14 days, absence of osteogenic induction medium
Description: MSCs were isolated as previously described with some modifications (Shih Y B, et al. (2019) Sci Adv. 5:eaax1387). Briefly, the femurs, tibiae, vertebrae of mice were harvested, crushed with pestle and mortar in harvest buffer (1% v/v FBS in PBS) to release bone marrow (BM) tissue, filtered through a 40-μm cell strainer, and centrifuged at 200 rcf. Cells were seeded in a 24-well plate at a cell density of 1 million cells/cm^2 in growth media (GM) containing α-MEM, FBS (10% v/v, ThermoFisher, Cat #16000044), penicillin/streptomycin (10000 U/mL; 1% v/v) and cultured in humidified incubator (37° C., 5% CO2). The medium was replaced after 3 days and further cultured for 6 days before passage. For passaging, cells were incubated in 0.25% trypsin-EDTA for 2 min at 37° C., detached with a cell scraper, neutralized by using GM, centrifuged, and sub-cultured at a density of 8000 cells/cm^2. All experiments were performed between 1-2 passage. Osteogenic medium (OM) was prepared by supplementing GM with 10 mM β-glycerophosphate (MilliporeSigma, Cat #G9422), 50 μM ascorbic acid-2-phosphate (MilliporeSigma, Cat #A8960), and 100 nM dexamethasone (MilliporeSigma, Cat #D4902).
Cells, DRG, or bone/marrow tissues were analyzed for gene expression by quantitative real-time polymerase chain reaction (RT-qPCR). Nucleic acids were extracted with TRIzol, phase-separated with chloroform, and precipitated in isopropanol. […] Quantitative PCR was performed with iTaq Universal SYBR green reagent (Bio-Rad, Cat #1725124) with denaturation at 95° C. for 30 sec for one cycle, and amplification (denaturation+annealing/extension) at 95° C. for 5 sec and 60° C. for 30 sec for 40 cycles on a polymerase chain reaction (PCR) cycler (Bio-Rad, CFX96 Touch). […]
The expression level of each target gene was normalized to the housekeeping gene and to their respective controls and presented as fold change expressed as 2^−ΔΔCt values. […]

**Q.** What does the source list for `Nc1ncnc2c1ncn2[C@@H]1O[C@H](CO)[C@@H](O)[C@H]1O` [adenosine]?
**A.** degree of decrease in weight bearing vs untreated group ([1]; 2 dpf and 4 dpf): less; percent change in weight bearing from baseline ([1]; 2 dpf and 4 dpf): significant decreases; percent change in weight bearing from baseline ([1]; 8 dpf): returned to baseline; ipsilateral weight bearing vs pre-fracture baseline ([1]; 2 days post-fracture): significantly decreased; ipsilateral weight bearing vs pre-fracture baseline ([1]; by 8 days post-fracture): returned back to the baseline; effect size of treatment on weight bearing ([1]; each timepoint, effect size r): large effect size; ipsilateral hindlimb weight bearing vs control-treated limbs ([1]; hydrogel with 1.05±0.1 mg adenosine implanted next to fracture, all post-fracture timepoints (2, 4, 8 dpf)): significantly higher; Ibsp gene expression [2]: upregulated; Runx2 gene expression [2]: upregulated; Sp7 gene expression [2]: upregulated
